Data set [1] concerns the target T1, Aβ1-40 (Homo sapiens, UniProt P05067).
T1 construct: aggregates to fibrils
Description: Electron microscopy of Aβ1-40 amyloid fibril formation. It is filed as biochemical. The text has this:
Bar is 200 nm. […] EM grids were extensively and carefully examined, and a negative result was only documented when fibrils were totally absent from the grids.

The target of data set [2] is T1, Aβ1-40. Description: Circular dichroism spectroscopy of Aβ1-40 (secondary structure). The following applies: for structural changes (secondary structure) / change of random conformation / change of β-sheet content: Aβ1-40 250 μM + 100 μM compound; for structural changes (secondary structure): 24 h; for change of random conformation / change of β-sheet content: time 0. The procedure:
(§1) The corresponding percentages of the different secondary structure motifs are shown for Aβ1-40 at time 0 in (FIG. 1C) and 24 hours (FIG. 1D) and for Aβ1-42 at time 0 (FIG. 1G) and 4 hours (FIG. 1H). An average of 40 scans/independent experimental condition was obtained. An independent experiment yielded qualitatively similar data.
(§2) Peptides Aβ1-40 and Aβ1-42 were synthesized in the W. M. Keck Foundation (Yale University, Conn.), and their purity was evaluated by amino acid sequence and laser […] mass spectrometry as described (Soto et al., 1996).
(§3) Spectra in the far ultraviolet light (190-250 nm) were recorded at various time intervals with a Jasco-720 spectropolarimeter as described (Soto et al., 1996) using a cell path of 0.01 cm. […] 40 scans/experimental condition were obtained at 0.2 nm intervals over the wavelength range 190-250 nm. The data were analyzed by the Lincomb algorithm (Perczel et al., 1992) to obtain the percentages of the different secondary structure motifs.
A general note: Circular dichroism is widely used to follow secondary structure.

In data set [3] the target is T2, Aβ1-42 (Homo sapiens, UniProt P05067).
T2 construct: aggregates to fibrils
Briefly: Circular dichroism spectroscopy of Aβ1-42 (secondary structure). The note with it: for structural changes (secondary structure): Aβ1-42 250 μM + 100 μM compound, time 0 and 4 h; for amount of β-sheet structures: Aβ1-42 250 μM + melatonin 100 μM. The procedure: as §1, §2, §3

The conditions of data set [4]: cited from earlier work.
For data set [5] the following is noted: Tan et al., 1993, cited from earlier work.
Data set [6] deals with intrinsic cellular antioxidant defenses. The note with it: Huerto-Delgadillo et al., 1994; cited from earlier work.
For data set [7], the target named is T1, Aβ1-40. Briefly: 1H NMR titration of Aβ1-40 with melatonin (binding).
Description: The solution conditions for the NMR and CD studies were similar, except that deuterated water (D2 O) in phosphate buffer was used in the NMR study. All ^1 H NMR spectra were obtained at 600 MHz using a Varian UnityPlus-600 spectrometer, and the data were processed using the FELIX program (version 95.0, Biosym, Inc.). The NMR solutions were prepared in D2 O (0.6 ml) with sodium phosphate buffer (5 mM, pH 7.5), perdeuterated Na2 EDTA (0.5 mM), NaN3 (0.05 mM), and 3-(trimethylsilyl) propionate-2,2,3,3-d4 (0.05 mM), the last of which serves as a internal chemical shift reference at 0 ppm. The NMR measurements were performed at 10° C. and the residual proton absorption of D2 O was suppressed by low power irradiation during the recycle delay. For all spectra, 128 scans were required with a total recycle delay of 4.2 s, which included an acquisition time and recycle delay of 2.2 and 2.0 s, respectively. The digital resolution of the acquired data was 0.24 Hz/pt, which was reduced to 0.12 Hz/pt by zero-filling the data once before processing. To further improve the resolution, before Fourier transformation spectra were multiplied by a Lorentzian-to-Gaussian weighting factor. This experiment was duplicated on two different days.
Data set [8] concerns cultured neuroblastoma cells. The note with it: cytotoxic fragment of amyloid β-protein; Pappolla et al., 1997; cited from earlier work.
For the next data set, the system named is calmodulin. The note with it: Benitez-King et al., 1993; cited from earlier work.
Another data set has as its system microtubular components. The following applies: Benitez-King et al., 1993; cited from earlier work.
For data set [9], the target named is T2, Aβ1-42. Description: Electron microscopy of Aβ1-42 amyloid fibril formation. It is filed as biochemical. As to the method:
The formation of amyloid fibrils was monitored at 0, 2, and 6 h.

Data set [10] deals with circadian disorders due to jet lag. The note with it: oral, 0.25-10 mg; Arendt et al., 1987; cited from earlier work.
Where [11] appears, read: Aβ1-40, incubated for up to 48 h.

“Also recorded” adds a separate entry of the source. Like-named read-outs stand apart in the source and are kept apart here.

T1 sequence (P05067 672-711): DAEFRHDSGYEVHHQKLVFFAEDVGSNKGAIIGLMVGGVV
T2 sequence (P05067 672-713): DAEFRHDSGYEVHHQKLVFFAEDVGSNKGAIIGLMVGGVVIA

Consider `CC(=O)NCCc1c[nH]c2ccc(O)cc12` [NAT, 5-hydroxy-N-acetyl-tryptamine], for which the Aβ1-40 fibril formation result on Aβ1-40 [1] (setting [11]) is “Well formed amyloid fibrils are easily recognized; also recorded: fibrils were abundant and easily identifiable”. For the same compound, on Aβ1-40 [2], the “structural changes (secondary structure)” value is listed as “no structural changes”, the “change of random conformation” value is recorded as “This effect was not observed” and the “change of β-sheet content” value was “This effect was not observed”. For the same compound, at Aβ1-42 [3], the “structural changes (secondary structure)” value is “not elicited”.
Turning to `COc1ccc2[nH]cc(CCNC(C)=O)c2c1` [melatonin, N-[2-(5-methoxy-1H-indol-3-yl)ethyl] acetamide], the lipid solubility entry in data set [4] is on record as “lipid soluble”. Moreover, the “crossing of the blood-brain barrier” value was “passes easily across the blood-brain barrier; also recorded: crosses the blood-brain barrier with ease” in data set [5] and “rapidly crosses the blood brain barrier” in data set [5] (listed as Melatonin). The “activity of intrinsic cellular antioxidant defenses” value in [6] is “increase the activity”. The “concentration of melatonin inhibiting fibril formation in all tubes” value on Aβ1-40 [1] (250 μM Aβ1-40, 48 h) is given as “above 10 μM”. Moreover, the Aβ1-40 fibril formation entry at Aβ1-40 [1] (250 μM Aβ1-40 plus 100 μM melatonin) was “only amorphous material”; on Aβ1-40 [1] (setting [11]), “Fibrils were not formed; also recorded: no fibrils were detected”. For the same compound, the “site of binding on Aβ” value on Aβ1-40 [7] (NMR shifts with varied melatonin concentrations) is on record as “not localized to a particular His site on Aβ”. At Aβ1-40 [7] (no line broadening or separate peaks for bound and free states), the “exchange regime of binding” value is “fast exchange limit”. In addition, the “prevention of cell death” value in data set [8] is “effective in preventing death of cultured neuroblastoma cells”. For the same compound, in data set [8], the “prevention of intracellular Ca^+2 increases” value is on record as “effective in preventing”. The “prevention of oxidative damage” value in [8] is listed as “effective in preventing”. In addition, the interaction with calmodulin entry in the data set with calmodulin is listed as “interacts with calmodulin”. Further, the “interaction with microtubular components” value in the data set with microtubular components is “interacts”. In addition, the “change of random conformation” value at Aβ1-40 [2] is recorded as “immediate increase”. Also, the “change of β-sheet content” value on Aβ1-40 [2] is “markedly diminished”. Further, the β-sheet content on Aβ1-40 [2] (Aβ1-40 250 μM + melatonin 100 μM, 24 h of incubation) is listed as 24%. Besides, the “amount of β-sheet structures” value amounted to 59% at Aβ1-42 [3] (4 h of incubation) and 65% on Aβ1-42 [3] (time 0). Further, the Aβ1-42 fibril formation entry at Aβ1-42 [9] (250 μM Aβ1-42, 2 and 6 h) was “only amorphous material”; on Aβ1-42 [9] (6 hrs., melatonin 100 μm (so in the source)) it was “Well formed amyloid fibrils are easily recognized in FIG. 3A, but not in FIG. 3B”. The “inhibition of Aβ1-42 fibril formation” value on Aβ1-42 [9] (melatonin 100 nM, 1 μM, 10 μM, 100 μM, and 200 μM) was “effective to inhibit fibril formation”. Moreover, in data set [10], the “treatment of circadian disorders due to jet lag” value is reported as “used successfully to treat circadian disorders due to jet lag”.
With `CC(C)(C)[N+]([O-])=Cc1ccccc1` [PBN, N-t-butyl-α-phenylnitrone], the Aβ1-40 fibril formation entry is “Well formed amyloid fibrils are easily recognized; also recorded: fibrils were abundant and easily identifiable” at Aβ1-40 [1] (setting [11]); “Fibrils were abundant in all these tubes” at Aβ1-40 [1] (PBN 10, 100, and 200 μM, 48 h). Further, the “structural changes (secondary structure)” value at Aβ1-40 [2] was “only small effects”; at Aβ1-42 [3] it was “not elicited”. Further, the “change of random conformation” value at Aβ1-40 [2] is “This effect was not observed”. On Aβ1-40 [2], the “change of β-sheet content” value is on record as “This effect was not observed”.

The record behind these values is patent publication US6274615A, “Method for delaying the onset of alheimer's disease and for treatment or delaying the onset of other amyloidosis-related diseases/disorders” (South Alabama Medical Science Foundation, priority 1999, dated 2001).
